Assay results: US10857155B2, “Compounds targeting proteins, compositions, methods, and uses thereof” (BioTheryX, Inc., priority 2017, dated 2020)

Tests used:
Assay type in all cases: cell-based
Molm-13 cells = assay: Cell viability assay (CellTiter-Glo), Molm-13 cells; conditions: for viability at 1 µM: MOLM-13, 1 μM; for viability at 10 µM: MOLM-13, 10 μM
Experimental: FIG. 5 represents antiproliferative activity in Molm-13 cells. The cells were incubated with Compound 1, 2, or 3 (at the indicated concentration), DMSO, or pomalidomide. Compound activity was measured based on the signal from remaining viable cells.
(§1) Molm-13 cells were cultivated in RPMI-1640 (10% FBS/1% pen-strep) and were plated in white walled 96-well plates at 20,000 cells/well. H1048 cells were cultured in DMEM:F12 media supplemented with 5% fetal bovine serum, insulin, transferrin, sodium selenite, hydrocortisone, estradiol, penicillin and streptomycin, and were plated in white walled 96-well plates at 20,000 cells/well.
(§2) Cells were treated with compound at the indicated concentration or DMSO (control) and the cultures were incubated for 3 days at 37° C. and 5% CO2. Following the incubation period, 100 μL of CellTiterGlow (CTG) reagent (CellTiter-Glo® Luminescent Cell Viability Assay, Promega (Madison, Wis.)) was added to each well. Following a 10 min incubation with shaking, luminescence was measured using a Victor Wallac Luminometer.

TNF-α = assay: TNF-alpha in LPS-induced PBMCs / CD14+ monocytes, Meso Scale assay
Experimental: (§3) FIG. 4 represents the activity against TNF-alpha in CD14, monocytes, plated in 96 well plates and pretreated with Compounds 1, 2, or 3, or pomalidomide, for 1 h and then induced with 100 ng/mL LPS for 18-24 h. Cytokines were measured according to MesoScale protocol. The negative control wells were treated with DMSO. Cells were treated with compound (at the indicated concentrations) or 10 μM pomalidomide. Compound activity was measured as a percentage of LPS-induced activity.
(§4) Either frozen primary blood mononuclear cells (PBMCs) or frozen CD14+ mobilized peripheral blood monocytes were purchased from AllCells (PB003F, Normal Peripheral Blood MNC (Alameda, Calif.)). Cells were quick thawed, washed 1-time with RPMI-1640 (10% FBS/1% Pen-Strep) and plated in 96 well plates at 200,000 cells per well. Cells were pretreated with DMSO only, pomalidomide or the indicated compounds for 1 h and then induced with 100 ng/mL lipopolysaccharide (LPS) for 18-24 h. The supernatant was analyzed for IL-1 beta, IL-6, and TNF-alpha, using Meso Scale assay according to manufacturer's protocol. The negative control wells were treated with DMSO.
(§5) Compound activity is measured as fold difference from the DMSO control. Compounds 1, 2, and 3 each reduced expression of IL-1-b in LPS-stimulated PBMCs by over 80% at 1 uM, relative to a just under 80% reduction with pomalidomide at 10 μM (FIG. 2).

IL-2 = IL-2 in PBMCs on anti-human CD3 (OKT3) coated plates, Mesoscale analysis; conditions: PBMC, 24 h, relative to DMSO control, read-out: Fold Change IL-2
Experimental: For the IL-2 analysis, 96 well plates were precoated with 1 μg/mL anti-human CD3 antibody (OKT3, eBioscience Inc., San Diego, Calif.). After washing with PBS, compounds were added (50 μL/well) followed by PBMCs diluted at 3-4 million cells/mL (150 μL/well). Plates were incubated for 24 h and the supernatants collected for Mesoscale IL-2 analysis.
as §5

IL-6 = IL-6 in LPS-induced PBMCs / CD14+ monocytes, Meso Scale assay
Experimental: as §3, with “FIG. 3” for “FIG. 4”, “against IL-6” for “against TNF-alpha”, “protocol. Negative” for “protocol. The negative”
as §4, §5

IL-1β = assay: IL-1 beta in LPS-induced PBMCs / CD14+ monocytes, Meso Scale assay
Experimental: FIG. 2 represents the activity against IL-1-beta in CD14 monocytes, plated in 96 well plates and pretreated with Compounds 1, 2, or 3, or pomalidomide, for 1 h and then induced with 100 ng/mL LPS for 18-24 h. Cytokines were measured according to MesoScale protocol. Negative control wells were treated with DMSO. Compound activity was measured as a percentage of LPS-induced activity.
as §4, §5

H1048 cells = assay: Cell viability assay (CellTiter-Glo), H1048 cells; conditions: Homo sapiens, NCI-H1048, 72 h, 3 days; for viability at 1 µM: H1048, 1 μM; for viability at 10 µM: H1048, 10 μM
Experimental: as §1, §2

GSPT1 = target: T1, GSPT1 (Homo sapiens, UniProt P15170); assay: Western blot analysis of GSPT1 protein levels in Jurkat cells; conditions: DMSO = 100.00; for GSPT1 protein level (% of DMSO control) at 0.1 µM: 100 nM compound; for GSPT1 protein level (% of DMSO control) at 1 µM: 1 uM compound
T1 construct: Whole cell extract was prepared with RIPA buffer according to manufacturer's protocol; endogenous in cells; host or cells: Jurkat cells
T1 sequence (P15170 whole entry): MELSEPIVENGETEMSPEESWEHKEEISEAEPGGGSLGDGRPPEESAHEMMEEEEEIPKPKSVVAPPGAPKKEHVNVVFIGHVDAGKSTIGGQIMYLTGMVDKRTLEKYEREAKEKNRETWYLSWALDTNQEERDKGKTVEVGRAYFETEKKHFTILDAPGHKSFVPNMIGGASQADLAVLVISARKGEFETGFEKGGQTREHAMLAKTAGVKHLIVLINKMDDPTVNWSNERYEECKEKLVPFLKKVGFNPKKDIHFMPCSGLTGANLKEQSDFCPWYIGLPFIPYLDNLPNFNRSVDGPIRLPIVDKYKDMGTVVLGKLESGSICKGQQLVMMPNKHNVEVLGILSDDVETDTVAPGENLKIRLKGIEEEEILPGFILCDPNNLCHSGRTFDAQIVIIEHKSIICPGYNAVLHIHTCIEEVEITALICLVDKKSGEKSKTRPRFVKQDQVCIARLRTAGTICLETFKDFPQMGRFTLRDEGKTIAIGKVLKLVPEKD
Experimental: FIG. 1 represents the activity against CK1α, ikaros, and GPST1 in Jurkat cells, plated in 96 well plates. Cells were pretreated with compounds for 4 h and then lysed and protein levels measure via Western blots. The negative control wells were treated with DMSO. Cells were treated with the indicated compound at the indicated concentration. Compound activity is measured as a decrease in GSPT1 protein levels.
Western Blot Protocol: Cell lines were grown in RPMI 1640 supplemented with streptomycin, penicillin and 10% fetal bovine serum.
Jurkat cells were cultured at approximately 10^6 cells per mL, DMSO or the indicated compound was added to the cells and allowed to incubate for 6-8 h. Whole cell extract was prepared with RIPA buffer according to manufacturer's protocol (Pierce (Dallas, Tex.)). Briefly, ˜2×10^6 cells were washed once in PBS, the cell pellet was resuspended in RIPA buffer and allowed to incubate for 15 min on ice. Cell debris was removed by centrifugation and the cleared whole cell lysate was transferred to a new tube for further analysis.
For western blot analysis, whole cell extracts were separated on 4-12% SDS-polyacrylamide gels, transferred to nitrocellulose and probed with the indicated primary antibodies. Membranes were subsequently washed and probed with the appropriate horseradish peroxidase (HRP)-conjugated secondary antibody. Membranes were subsequently washed and probed with the appropriate IRDye secondary antibodies (LI-COR). The signal was detected using the Odyssey Imaging System (LI-COR).

Compound	GSPT1 protein level (% of DMSO control) at 0.1 µM (GSPT1) [%]	GSPT1 protein level (% of DMSO control) at 1 µM (GSPT1) [%]	viability at 1 µM (Molm-13 cells; Homo sapiens, 72 h, 3 days) [%]	inhibition at 0.1 µM (TNF-α) [%]	fold induction at 0.1 µM (IL-2)	inhibition at 0.1 µM (IL-6) [%]	inhibition at 0.1 µM (IL-1β) [%]	viability at 1 µM (H1048 cells) [%]	viability at 10 µM (H1048 cells) [%]	viability at 10 µM (Molm-13 cells; Homo sapiens, 72 h, 3 days) [%]	inhibition at 1 µM (TNF-α) [%]	fold induction at 1 µM (IL-2)	inhibition at 1 µM (IL-6) [%]	inhibition at 1 µM (IL-1β) [%]	viability at 0.7 µM (Molm-13 cells; Homo sapiens, 72 h, MOLM-13, 0.7 μM, 3 days) [%]	effect on cell viability (Molm-13 cells; Molm-13 cells, 10 μM (FIG. 5))	reduction of expression of TNF-α (TNF-α; LPS-stimulated PBMCs, 10 μM (FIG. 4)) [%]	reduction of IL-6 levels (IL-6; LPS-stimulated PBMCs, 10 μM (FIG. 3))	reduction of expression of IL-1-b (IL-1β; LPS-stimulated PBMCs, 10 μM (FIG. 2))
Cc1ccc(NC(=O)NCc2cccc3c2CN([C@H]2CCCC(=O)NC2=O)C3=O)cc1Cl [Compound 17, (S)-1-(3-chloro-4-methylphenyl)-3-((2-(2,7-dioxoazepan-3-yl)-1-oxoisoindolin-4-yl)methyl)urea]	131	80.5	–	18	1.3	0	19	95.5	34.9	91	–	–	–	–	–	–	–	–	–
Cc1ccc(NC(=O)NCCc2cccc3c2CN([C@H]2CCCC(=O)NC2=O)C3=O)cc1Cl [Compound 23, (S)-1-(3-chloro-4-methylphenyl)-3-(2-(2-(2,7-dioxoazepan-3-yl)-1-oxoisoindolin-4-yl)ethyl)urea]	147	105	–	25	0.8	0	21	–	25.1	96	–	–	–	–	–	–	–	–	–
Cc1ccc(CC(=O)NCc2ccc3c(c2)CN([C@H]2CCCC(=O)NC2=O)C3=O)cc1CN1CCOCC1 [Compound 11, (S)—N-((2-(2,7-dioxoazepan-3-yl)-1-oxoisoindolin-5-yl)methyl)-2-(4-methyl-3-(morpholinomethyl)phenyl)acetamide]	137	56	–	–	–	–	–	70.8	11.6	99	12	0.6	5	0	–	–	–	–	–
Nc1cccc2c1C(=O)N(C1CCC(=O)NC1=O)C2=O (stereo not drawn) [pomalidomide, reference compound]	–	–	–	–	–	–	–	–	–	–	–	–	–	–	–	no effect on cellular viability	~30	under 60%	under 80%

More lines, main results first:

GSPT1 protein level (% of DMSO control) at 0.1 µM (GSPT1) [%]	GSPT1 protein level (% of DMSO control) at 1 µM (GSPT1) [%]	Compound	viability at 1 µM (Molm-13 cells; Homo sapiens, 72 h, 3 days) [%]	inhibition at 0.1 µM (TNF-α) [%]	fold induction at 0.1 µM (IL-2)	inhibition at 0.1 µM (IL-6) [%]	inhibition at 0.1 µM (IL-1β) [%]	viability at 1 µM (H1048 cells) [%]	viability at 10 µM (H1048 cells) [%]	viability at 10 µM (Molm-13 cells; Homo sapiens, 72 h, 3 days) [%]	inhibition at 1 µM (TNF-α) [%]	fold induction at 1 µM (IL-2)	inhibition at 1 µM (IL-6) [%]	inhibition at 1 µM (IL-1β) [%]	viability at 0.7 µM (Molm-13 cells; Homo sapiens, 72 h, MOLM-13, 0.7 μM, 3 days) [%]	effect on cell viability (Molm-13 cells; Molm-13 cells, 10 μM (FIG. 5))	reduction of expression of TNF-α (TNF-α; LPS-stimulated PBMCs, 10 μM (FIG. 4)) [%]	reduction of IL-6 levels (IL-6; LPS-stimulated PBMCs, 10 μM (FIG. 3))	reduction of expression of IL-1-b (IL-1β; LPS-stimulated PBMCs, 10 μM (FIG. 2))
61.6	20.8	Cc1ccc(NC(=S)NCc2ccc3c(c2)CN([C@H]2CCCC(=O)NC2=O)C3=O)cc1Cl [Compound 26, (S)-1-(3-chloro-4-methylphenyl)-3-((2-(2,7-dioxoazepan-3-yl)-1-oxoisoindolin-5-yl)methyl)thiourea]	79	3	0.8	0	1	46.4	4.54	–	–	–	–	–	–	–	–	–	–
–	18.6	O=C1CCC[C@H](N2Cc3cc(CNC(=O)Nc4ccc(C(F)(F)F)c(Cl)c4)ccc3C2=O)C(=O)N1 [Compound 12, (S)-1-(3-chloro-4-(trifluoromethyl)phenyl)-3-((2-(2,7-dioxoazepan-3-yl)-1-oxoisoindolin-5-yl)methyl)urea]	–	–	–	–	–	–	–	11	59	1.5	90	75	–	–	–	–	–
113	37.9	O=C1CCC[C@H](N2Cc3cc(CNC(=O)Nc4ccc(F)c(Cl)c4)ccc3C2=O)C(=O)N1 [Compound 6, (S)-1-(3-chloro-4-fluorophenyl)-3-((2-(2,7-dioxoazepan-3-yl)-1-oxoisoindolin-5-yl)methyl) urea]	–	–	–	–	–	45.7	5.42	–	65	1.3	77	64	50	–	–	–	–
–	26.8	Cc1ccc(CCNC(=O)NCc2ccc3c(c2)CN([C@H]2CCCC(=O)NC2=O)C3=O)cc1Cl [Compound 19, (S)-1-(3-chloro-4-methylphenethyl)-3-((2-(2,7-dioxoazepan-3-v)-1-oxoisoindolin-5-yl)methyl)urea]	79	33	1.2	17	37	8.26	3.09	–	–	–	–	–	–	–	–	–	–
98.1	63.5	O=C1CCC[C@H](N2Cc3cc(CNC(=O)C(F)(F)c4ccc(F)cc4)ccc3C2=O)C(=O)N1 [Compound 25, (S)—N-((2-(2,7-dioxoazepan-3-yl)-1-oxoisoindolin-5-yl)methyl)-2,2-difluoro-2-(4-fluorophenyl)acetamide]	–	36	1.4	12	38	88.1	26.6	96	–	–	–	–	–	–	–	–	–
122	126	Cc1ccc(NC(=O)NCCc2ccc3c(c2)CN([C@H]2CCCC(=O)NC2=O)C3=O)cc1Cl [Compound 24, (S)-1-(3-chloro-4-methylphenyl)-3-(2-(2-(2,7-dioxoazepan-3-yl)-1-oxoisoindolin-5-yl)ethyl)urea]	–	42	0.9	0	26	–	2.81	98	–	–	–	–	–	–	–	–	–
214	116	CCCNC(=O)NCc1ccc2c(c1)CN([C@H]1CCCC(=O)NC1=O)C2=O [Compound 4, (S)-1-((2-(2,7-dioxoazepan-3-yl)-1-oxoisoindolin-5-yl)methyl)-3-propylurea]	–	–	–	–	–	103	97.5	–	44	1.5	33	39	–	–	–	–	–
